Each structure is given as a SMILES string.

One assay has as its system PC3 cells. Description: Fluorescence/confocal microscopy labeling of cells that do not express PSMA (negative control). The note with it: fluorescence microscopy. The class given is cell-based. The method, then: (§1) These compounds have been subsequently derivatized with amine-reactive fluorescent dyes (FIG. 9) to specifically label PSMA-expressing prostate cancer cells. […] Confocal microscopy was conducted on both LNCaP and PC3 prostate cancer cells after treatment with L6-V1-21 and propidium iodide.
(§2) While propidium iodide stained the nuclei of both cell lines, only the surface of the PSMA-expressing LNCaP 6 cells were fluorescently labeled with L6-V1-21. The intensely labeled sites on these LNCaP cells are hypothesized to be locations in which PSMA has aggregated.
(§3) To confirm that LW-54-F5EX was specific for PSMA-expressing cells, both LNCaP and PC3 cells were treated with this compound. While DAPI (4′,6-diamidino-2-phenylindole) stained nuclear DNA in both cell lines, only LNCaP cells were fluorescently labeled with LW-54-F5EX.
(§4) In that experiment, both LNCaP and PC3 cells were treated with LW-54-5FAMX. While DAPI (4′,6-diamidino-2-phenylindole) stained nuclear DNA in both cell lines, only LNCaP cells were fluorescently labeled with LW-54-5FAMX.

In another assay the test system is LNCaP cells. Nature of the assay: Fluorescence/confocal microscopy labeling of PSMA-expressing cells. The following applies: PSMA-expressing prostate cancer cells; fluorescence microscopy. The format is cell-based. As for the experimental part:
as §1, §2, §3, §4

The target of another assay is T1, MMP-2 (Homo sapiens, UniProt P08253).
T1 sequence (P08253 110-660): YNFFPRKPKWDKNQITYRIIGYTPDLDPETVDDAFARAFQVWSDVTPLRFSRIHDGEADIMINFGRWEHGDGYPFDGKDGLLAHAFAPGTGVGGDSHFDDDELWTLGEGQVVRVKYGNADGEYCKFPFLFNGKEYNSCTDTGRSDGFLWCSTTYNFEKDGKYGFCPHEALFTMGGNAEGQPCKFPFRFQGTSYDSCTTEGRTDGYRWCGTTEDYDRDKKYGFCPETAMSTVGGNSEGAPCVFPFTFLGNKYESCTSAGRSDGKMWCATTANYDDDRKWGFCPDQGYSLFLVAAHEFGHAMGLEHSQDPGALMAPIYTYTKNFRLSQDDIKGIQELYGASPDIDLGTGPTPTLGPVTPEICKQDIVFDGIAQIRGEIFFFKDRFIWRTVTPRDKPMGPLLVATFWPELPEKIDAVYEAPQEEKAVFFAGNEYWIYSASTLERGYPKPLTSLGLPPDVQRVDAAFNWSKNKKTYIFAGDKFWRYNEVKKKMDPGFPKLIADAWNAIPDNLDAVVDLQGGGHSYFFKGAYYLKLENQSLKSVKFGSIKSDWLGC
Description: MMP-2 inhibition. The following applies: concentrations up to 10 μM. The class given is biochemical.

In assay [1] the target is T2, PSMA (Homo sapiens, UniProt Q04609). Nature of the assay: Inhibitor induced PSMA homodimer formation (Western blots). The note with it: treatment of PSMA with inhibitor. The class given is biochemical. An excerpt: As shown in the representative example in FIG. 6, covalent PSMA dimer formation mediated by T33 is both concentration dependent and time-dependent. […] Although we have not determined the mechanism of inhibition for T33, L36 and MP1D, it is clear that these agents represent a unique class of inhibitors of PSMA that may be used as covalent delivery vehicles specific for PSMA-expressing cancer cells. Based upon a cursory literature review, this is the first design and preparation of irreversible covalent modifiers of PSMA.

For assay [2], the target named is T2, PSMA. Description: Time-dependence and reversibility of PSMA inhibition (100-fold dilution of inhibited enzyme). The format is biochemical. The following applies: for reversibility of PSMA inhibition: recovery of PSMA activity after 100-fold dilution of inhibited enzyme.
The target in the next assay is T3, purified PSMA (Homo sapiens, UniProt Q04609).
T3 construct: against purified PSMA from LNCaP cells by our published method; endogenous in cells; host or cells: LNCaP cells
Description: PMSA Inhibition Assay (HPLC, PAB-Glu-γ-Glu substrate). The class given is biochemical. The note with it: for inhibitory potency / affinity for PSMA (in words): purified PSMA from LNCaP cells; for IC50: read-out: IC50 against PSMA. The method, then:
Adapted from, Maung, J.; Mallari, J. P.; Girtsman, T. A.; Wu, L. Y.; Rowley, J. A.; Santiago, N. M.; Brunelle, A.; Berkman, C. E. Probing for a Hydrophobic a Binding Register in Prostate-Specific Membrane Antigen with Phenylalkylphosphonamidates. […] Med. Chem. 2004, 12, 4969.
Working solutions of the substrate (N-[4-(phenylazo)benzoyl]-glutamyl-g-glutamic acid, PAB-Glu-γ-Glu) and all inhibitors were made in TRIS buffer (50 mM, pH 7.4). Working solutions of purified PSMA were appropriately diluted in TRIS buffer (50 mM, pH 7.4) to provide from 15% to 20% conversion of substrate to product in the absence of inhibitor. A typical incubation mixture (final volume 250 μL) was prepared by the addition of either 25 μL of an inhibitor solution or 25 μL TRIS buffer (50 mM, pH 7.4) to 175 μL TRIS buffer (50 mM, pH 7.4) in a test tube. A volume of the 25 μL PAB-Glu-γ-Glu (100 μM) was added to the above solution. The enzymatic reaction was initiated by the addition of 25 μL of the PSMA working solution. In all cases, the final concentration of PAB-Glu-γ-Glu was 10 μM while the enzyme was incubated with five serially-diluted inhibitor concentrations to provide a range of inhibition from 10% to 90% inhibition. The reaction was allowed to proceed for 15 min with constant shaking at 37° C. and was terminated by the addition of 25 μL methanolic TFA (2% trifluoroacetic acid by volume in methanol) followed by vortexing. The quenched incubation mixture was quickly buffered by the addition of 25 μL K2HPO4 (0.1 M), vortexed, and centrifuged (10 min at 7000 g). An 85 μL aliquot of the resulting supernatant was subsequently quantified by HPLC. IC50 values were calculated using KaleidaGraph 3.6 (Synergy Software).
PABGγG and its hydrolytic product (PABG) were separated and quantified using an analytical reversed-phase HPLC column (Lichrosphere C18 5 μm, 150×4.6 mm; Phenomenex, Torrence, Calif.) with a mobile phase consisting of ACN/potassium phosphate [25 mM, pH 2.0 (adjusted with H3PO4)] at a respective volume ratio of 40:60.

Assay [3] has as its target matrix metalloproteinase-9 (MMP-9) (Homo sapiens, UniProt P14780). Nature of the assay: MMP-9 inhibition (specificity study). The class given is biochemical. The following applies: preliminary study; read-out: Ki against MMP-9. As for the experimental part:
To determine that the design of the phosphoramidate inhibitors of the invention is specific to PSMA, a preliminary study was conducted with representative compounds from the T33 analog library (FIG. 1) with matrix metalloproteinase-9 (MMP-9). The MMP enzymes are zinc-dependent endopeptidases involved in the degradation of extracellular matrices.

T3 sequence (Q04609 whole entry): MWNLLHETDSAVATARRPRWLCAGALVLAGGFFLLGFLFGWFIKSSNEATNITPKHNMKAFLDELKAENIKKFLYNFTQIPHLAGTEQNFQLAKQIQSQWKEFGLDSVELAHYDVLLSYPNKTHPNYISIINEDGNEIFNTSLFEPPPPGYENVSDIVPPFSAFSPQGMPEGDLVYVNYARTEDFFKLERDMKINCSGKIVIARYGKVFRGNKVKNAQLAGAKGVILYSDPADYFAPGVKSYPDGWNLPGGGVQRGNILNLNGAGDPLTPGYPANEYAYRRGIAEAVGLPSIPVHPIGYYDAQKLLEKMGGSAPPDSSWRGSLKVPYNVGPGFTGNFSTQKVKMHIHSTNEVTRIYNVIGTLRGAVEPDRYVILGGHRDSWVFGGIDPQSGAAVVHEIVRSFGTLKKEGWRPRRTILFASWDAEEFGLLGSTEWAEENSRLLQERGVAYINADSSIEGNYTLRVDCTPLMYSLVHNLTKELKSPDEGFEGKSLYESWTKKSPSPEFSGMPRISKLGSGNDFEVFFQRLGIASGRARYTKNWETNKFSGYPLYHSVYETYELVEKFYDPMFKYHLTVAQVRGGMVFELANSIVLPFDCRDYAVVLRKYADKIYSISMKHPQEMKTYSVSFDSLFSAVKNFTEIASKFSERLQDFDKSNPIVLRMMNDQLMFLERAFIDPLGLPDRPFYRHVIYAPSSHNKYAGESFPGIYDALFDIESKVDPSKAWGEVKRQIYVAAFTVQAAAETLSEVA
T2 sequence (Q04609 whole entry): as above
Sequence of matrix metalloproteinase-9 (MMP-9) (P14780 94-707, species assumed): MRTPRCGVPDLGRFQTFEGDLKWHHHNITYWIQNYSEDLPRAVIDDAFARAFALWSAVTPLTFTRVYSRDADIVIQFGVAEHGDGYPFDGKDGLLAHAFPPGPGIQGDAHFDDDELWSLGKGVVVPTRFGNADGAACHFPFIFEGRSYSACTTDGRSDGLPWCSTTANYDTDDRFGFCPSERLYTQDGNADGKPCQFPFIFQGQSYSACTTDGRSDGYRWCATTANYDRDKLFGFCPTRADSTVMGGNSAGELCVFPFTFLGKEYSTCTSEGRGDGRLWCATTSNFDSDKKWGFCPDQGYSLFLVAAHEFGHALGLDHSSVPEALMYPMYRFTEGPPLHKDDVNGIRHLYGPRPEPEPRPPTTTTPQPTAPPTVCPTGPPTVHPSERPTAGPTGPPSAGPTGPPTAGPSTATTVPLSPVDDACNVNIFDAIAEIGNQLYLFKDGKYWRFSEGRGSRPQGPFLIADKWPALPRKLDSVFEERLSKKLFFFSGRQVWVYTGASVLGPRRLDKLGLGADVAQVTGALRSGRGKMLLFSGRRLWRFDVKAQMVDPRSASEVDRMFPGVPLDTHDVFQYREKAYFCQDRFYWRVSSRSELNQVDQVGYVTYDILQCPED

With `O=C1C=CC2C(=C1)Oc1cc(O)ccc1C2c1ccc(NC(=O)CSCCC(=O)N[C@@H](CCC(=O)N[C@@H](COP(=O)(O)N[C@@H](CCC(=O)O)C(=O)O)C(=O)O)C(=O)O)cc1C(=O)O` (stereo partly drawn) [LW-54-F5EX, N-{3-[(2-{[3-carboxy-4-(6-hydroxy-3-oxo-9,9a-di hydro-3H-xanthen-9-yl)phenyl]amino}-2-oxoethyl)thio]propanoyl}-L-γ-glutamyl -O-[{[(1S)-1,3-dicarboxypropyl]amino}(hydroxy)phosphoryl]-L-serine], the “fluorescent labeling of PC3 cells” value in the assay on PC3 cells is recorded as “no green fluorescent labeling”. In addition, the “fluorescent labeling of LNCaP cells” value in the assay with LNCaP cells is “extensive cell-surface labeling”.
For `O=C(O)CC[C@H](NP(=O)(O)OC[C@H](NC(=O)c1ccccc1)C(=O)O)C(=O)O` [Compound T33, N-{[(2S)-2-(benzoylamino) -2-carboxyethoxy](hydroxy)phosphoryl}-L-glutamic acid], on MMP-2, the “inhibition of MMP-2” value is recorded as “no inhibition”. For the same compound, the “covalent PSMA homodimer formation” value at PSMA [1] is “formation of covalent PSMA homodimers”. Also, at PSMA [2], the “time-dependence of PSMA inhibition” value is “time-dependent PSMA inhibition” and the “reversibility of PSMA inhibition” value is listed as “irreversible”. Besides, on purified PSMA, the “inhibitory potency / affinity for PSMA (in words)” value (“inhibitory potency / affinity” below) is reported as “superior inhibitory potency” and the IC50 was < 0.05 µM.
In the case of `O=C(O)CC[C@H](NP(=O)(O)OCc1ccc(-c2ccccc2)cc1)C(=O)O` [NC-2-29, N-[(biphenyl-4-ylmethoxy) (hydroxy)phosphoryl]-L-glutamic acid], the Ki in assay [3] was found to be 5000 µM.
For the compound `NCc1ccc(C(=O)N[C@@H](COP(=O)(O)N[C@@H](CCC(=O)O)C(=O)O)C(=O)O)cc1` [LW-39, N-{[(2S)-2-{[4-(aminomethyl)benzoyl]amino}-2-carboxyethoxy](hydroxy)phosphoryl}-L-glutamic acid], the “reversibility of PSMA inhibition” value on PSMA [2] is reported as “irreversible inhibitors”.
On to `CN(C(=O)c1ccccc1)[C@@H](COP(=O)(O)N[C@@H](CCC(=O)O)C(=O)O)C(=O)O` [Compound L36, N-[{(2S)-2-[benzoyl(methyl)amino]-2-carboxyethoxy} (hydroxy)phosphoryl]-L-glutamic acid], for which the “covalent PSMA homodimer formation” value at PSMA [1] is recorded as “formation of covalent PSMA homodimers”. At PSMA [2], the “reversibility of PSMA inhibition” value is recorded as “irreversible”. Besides, the “inhibitory potency / affinity” value at purified PSMA was “superior inhibitory potency”.
With `O=C(O)CC[C@H](NP(=O)(O)OCC(CCc1ccccc1)C(=O)O)C(=O)O` (stereo partly drawn) [MP1E, N-[(2-carboxy-4-phenylbutoxy)(hydroxy)phosphoryl] -L-glutamic acid], the “reversibility of PSMA inhibition” value on PSMA [2] is on record as “irreversible”.
Regarding `O=C1C=CC2C(=C1)Oc1cc(O)ccc1C2c1ccc(NC(=S)N[C@@H](COP(=O)(O)N[C@@H](CCC(=O)O)C(=O)O)C(=O)O)cc1C(=O)O` (stereo partly drawn) [Compound L6-V1-21, N-[{(2S)-2-carboxy-2-[({[3-carboxy-4-(6-hydroxy-3-oxo-9,9a-dihydro-3H-xanthen-9-yl)phenyl]amino}carbonothioyl)amino]ethoxy} (hydroxy)phosphoryl]-L-glutamic acid], the “fluorescent labeling of PC3 cells” value with PC3 cells was “no green fluorescent labeling”. Also, in the assay on LNCaP cells, the “fluorescent labeling of LNCaP cells” value is recorded as “extensive cell-surface labeling”. Also, at purified PSMA, the IC50 turned out to be 0.085 µM.
For the compound `O=C(O)CC[C@H](NP(=O)(O)OCCCCc1ccccc1)C(=O)O` [MP1D, N-[hydroxy(4-phenylbutoxy)phosphoryl]-L-glutamic acid], at PSMA [2], the “reversibility of PSMA inhibition” value was “irreversible inhibition”. In addition, at purified PSMA, the “inhibitory potency / affinity” value was “considerable affinity is maintained”.

Source of the values: patent US7696185B2, “Peptidomimetic inhibitors of PSMA, compounds comprising them, and methods of use” (Cancer Targered Technology LLC, priority 2006, dated 2010).
